Among the test systems are A498; A549; COLO 205; HCT-116; HOP-62; HOP-92; HT-29; LOX IMVI; NCI-H522; OVCAR-5; OVCAR-8; SF-539; SK-OV-3; SW-620; U-251; UO-31; EKVX; NCI-H226.
Experiment in all cases: growth of human tumour cells (NCI), 48 h

The structures appear in SMILES notation.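 Values below derive from 48-hour exposures of cells grown in 96-well plates, with endpoints linearly interpolated between the two concentrations bracketing the appropriate inhibition level. GI50 is the concentration that inhibits growth by half.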 The source made the active and inactive calls. Cut-off read from the data, not from the text of the source: active = GI50 up to about 1.1 µM and inactive = higher.

As for `O=NN(CCF)C(=O)NC1CCSCC1`, the GI50 was > 100 µM (inactive) with A498; > 100 µM (inactive) with A549; > 100 µM (inactive) with COLO 205; > 100 µM (inactive) with HCT-116; 1 µM (active) in the assay on HOP-62; > 100 µM (inactive) in the assay with HOP-92. For the same molecule, the GI50 with HT-29, with LOX IMVI, with NCI-H522, in the assay with OVCAR-5, with OVCAR-8 and with SF-539 was > 100 µM (inactive) in each case. Besides, the GI50 with SK-OV-3, in the assay with SW-620, in the assay with U-251 and in the assay on UO-31 was > 100 µM (inactive) in each case.

With `CSc1nc(NC(=O)O)c(N(C(C)=O)C(=O)O)c(=O)n1C`, the GI50 in the assay on A498, in the assay on A549, in the assay on COLO 205, in the assay on EKVX, with HCT-116 and in the assay with HOP-92 was > 100 µM (inactive) throughout. The GI50 in the assay on HT-29, in the assay on LOX IMVI, in the assay with NCI-H226, with OVCAR-5, with OVCAR-8 and in the assay on SF-539 was > 100 µM (inactive) in each case. Also, the GI50 with SW-620, in the assay on U-251 and in the assay with UO-31 was > 100 µM (inactive) each time.

As for `Cc1cc(Cl)ccc1/N=C1/NC(=O)C(CC(=O)Nc2cccc(C)c2C)S1` (centres undefined), the GI50 in the assay on A498 was 16.9 µM (inactive); with A549 it was 32 µM (inactive); with COLO 205 it was 24.3 µM (inactive); in the assay with EKVX it was 37.8 µM (inactive); in the assay with HOP-62, 24 µM (inactive); in the assay with HOP-92, 1.41 µM (inactive). The GI50 was 37.8 µM (inactive) with HT-29; 22.3 µM (inactive) with LOX IMVI; 31.7 µM (inactive) in the assay with OVCAR-5; 26.5 µM (inactive) in the assay with OVCAR-8; 21.5 µM (inactive) with SF-539; 30.4 µM (inactive) in the assay on SK-OV-3. In addition, the GI50 with SW-620 is 35.1 µM (inactive); in the assay with U-251, 26.2 µM (inactive); in the assay on UO-31, 21.6 µM (inactive).

For `CCCCN(CCCC)C(=O)C(=O)C(C#N)c1ccc(C)cc1` (centres undefined), the GI50 with A498, in the assay with A549, with EKVX, in the assay with HCT-116, with HOP-62 and in the assay on HOP-92 was > 100 µM (inactive) each time. In addition, the GI50 in the assay on HT-29, in the assay on LOX IMVI, in the assay on NCI-H226, in the assay on NCI-H522, in the assay with OVCAR-5 and in the assay on OVCAR-8 was > 100 µM (inactive) in each case. For the same molecule, the GI50 with SF-539, with SW-620, in the assay with U-251 and with UO-31 was > 100 µM (inactive) each time.

`CC1C=CC(=O)C(n2cc(F)c(=O)[nH]c2=O)O1` (centres undefined): the GI50 is 24.4 µM (inactive) in the assay with A549; 20.1 µM (inactive) in the assay on COLO 205; 22.5 µM (inactive) with EKVX; 15.7 µM (inactive) with HCT-116; 20.8 µM (inactive) in the assay with HOP-62; 17.5 µM (inactive) with HOP-92. Besides, the GI50 in the assay with HT-29 is 18.2 µM (inactive); with LOX IMVI it was 15.8 µM (inactive); with OVCAR-8 it was 22.4 µM (inactive); with SF-539, 17.2 µM (inactive); in the assay with SK-OV-3, 27.7 µM (inactive); in the assay on SW-620 it was 17.6 µM (inactive). Moreover, the GI50 with U-251 is 15.7 µM (inactive); in the assay on UO-31 it was 16.4 µM (inactive).

Turning to `C=CCNC1=NC(=O)C(CC(=O)Nc2cccc(Cl)c2)S1` (centres undefined), the GI50 in the assay with A498, with A549, in the assay on COLO 205, with EKVX, in the assay with HOP-62 and in the assay with HT-29 was > 100 µM (inactive) in each case. The GI50 in the assay on LOX IMVI, in the assay on NCI-H226, with NCI-H522, in the assay with OVCAR-5, in the assay on OVCAR-8 and in the assay with SF-539 was > 100 µM (inactive) each time. Further, the GI50 in the assay with SK-OV-3, with SW-620, in the assay with U-251 and with UO-31 was > 100 µM (inactive) in each case.

As to `CC1Cc2c(N)nc(N3CCOCC3)nc2NC1=O` (centres undefined), the GI50 with A549, in the assay with COLO 205, in the assay with EKVX, in the assay on HCT-116, with HOP-62 and in the assay on HT-29 was > 100 µM (inactive) in each case. In addition, the GI50 in the assay with LOX IMVI, in the assay with NCI-H226, with NCI-H522, with OVCAR-8, in the assay with SF-539 and with SK-OV-3 was > 100 µM (inactive) each time. Moreover, the GI50 in the assay on SW-620, with U-251 and in the assay on UO-31 was > 100 µM (inactive) in each case.

Turning to `COc1ccc(NC(=O)CC(=O)n2nc(C)c(/N=N/c3ccccc3C(=O)O)c2C)cc1`, the GI50 in the assay with A498, with A549, in the assay on COLO 205, in the assay with EKVX, with HCT-116 and in the assay on HOP-62 was > 100 µM (inactive) throughout. Further, the GI50 in the assay with HT-29, in the assay with LOX IMVI, in the assay on NCI-H522, in the assay on OVCAR-5, in the assay with OVCAR-8 and in the assay on SF-539 was > 100 µM (inactive) throughout. Further, the GI50 with SK-OV-3 is 40.3 µM (inactive); in the assay with SW-620, > 100 µM (inactive); in the assay with U-251, > 100 µM (inactive); with UO-31, > 100 µM (inactive).

`CC(C(=O)C(C)O[Si](c1ccccc1)(c1ccccc1)C(C)(C)C)=P(c1ccccc1)(c1ccccc1)c1ccccc1` (centres undefined): the GI50 in the assay with A498 was 4.28 µM (inactive); in the assay on A549 it was 3.3 µM (inactive); in the assay with COLO 205, 1.8 µM (inactive); in the assay with EKVX it was 12.9 µM (inactive); with HCT-116, 2.98 µM (inactive); in the assay on HOP-62 it was 3.09 µM (inactive). Also, the GI50 in the assay on HOP-92 was 2.21 µM (inactive); with HT-29, 3.08 µM (inactive); in the assay with LOX IMVI, 3.29 µM (inactive); with NCI-H226, 3.3 µM (inactive); in the assay with OVCAR-5, 11 µM (inactive); in the assay with OVCAR-8, 3.82 µM (inactive). Also, the GI50 with SF-539 is 3.89 µM (inactive); in the assay on SK-OV-3, 2.42 µM (inactive); in the assay on SW-620, 3.91 µM (inactive); with U-251, 4.01 µM (inactive); in the assay with UO-31, 5.28 µM (inactive).

Turning to `CC1CCCCc2nc3c(c(=O)n21)CCCC3` (centres undefined), the GI50 with A549, in the assay on COLO 205, with HCT-116, with HOP-62, with HOP-92 and in the assay with HT-29 was > 100 µM (inactive) in each case. The GI50 in the assay on LOX IMVI is > 100 µM (inactive); with NCI-H226, > 100 µM (inactive); in the assay on NCI-H522, > 100 µM (inactive); with OVCAR-5, > 100 µM (inactive); with OVCAR-8, 63.2 µM (inactive); in the assay with SF-539, > 100 µM (inactive). For the same molecule, the GI50 with SK-OV-3, in the assay on SW-620, with U-251 and in the assay on UO-31 was > 100 µM (inactive) each time.

Regarding `CCCCc1ccc(-n2c3nc(=O)n(C)c(=O)c-3nc3ccccc32)cc1`, the GI50 in the assay on A498 was 18.7 µM (inactive); in the assay on A549, 5.61 µM (inactive); in the assay with COLO 205 it was 3.09 µM (inactive); with EKVX it was 4.05 µM (inactive); in the assay with HCT-116, 12.3 µM (inactive); with HOP-62, 18.2 µM (inactive). For the same molecule, the GI50 was 3.11 µM (inactive) in the assay on HT-29; 11.7 µM (inactive) in the assay with NCI-H226; 7.6 µM (inactive) in the assay on NCI-H522; 18.1 µM (inactive) with OVCAR-5; 7.57 µM (inactive) with OVCAR-8; 14.1 µM (inactive) in the assay on SF-539. Moreover, the GI50 was 37.7 µM (inactive) in the assay with SK-OV-3, 6.18 µM (inactive) with SW-620, 10.6 µM (inactive) in the assay with U-251 and 12.5 µM (inactive) in the assay on UO-31.

For the molecule `Cc1ccc(S(=O)(=O)NC(=O)Nc2nc(Cl)cc(Cl)n2)cc1`, the GI50 in the assay with A498, in the assay with A549, in the assay on COLO 205, in the assay with EKVX, in the assay with HCT-116 and with HOP-62 was > 100 µM (inactive) each time. For the same molecule, the GI50 with HOP-92 was 99.3 µM (inactive); in the assay on LOX IMVI, > 100 µM (inactive); in the assay with NCI-H226, > 100 µM (inactive); in the assay on NCI-H522, 5.89 µM (inactive); in the assay on OVCAR-5, > 100 µM (inactive); in the assay on OVCAR-8, > 100 µM (inactive). Besides, the GI50 in the assay with SF-539, in the assay with SK-OV-3, in the assay on SW-620, in the assay with U-251 and with UO-31 was > 100 µM (inactive) each time.

The values are drawn from ChEMBL document CHEMBL1201862, “PubChem BioAssay data set” (2004).
